Reference: PMC6208384 (2018)

Columns and labels:
[1] = tested on: Fab BL3-6, PDB:6DB9_2+PDB:6DB9_3; assay: filter binding; conditions: 5 mM Mg2+; no dye mentioned; Filter binding: 50 mM Tris pH 7.4, 150 mM NaCl, 5 mM MgCl2, 0.1 U/uL RNase inhibitor, 2 nM-2 uM Fab, 30 min; RNA refolded at 50 C then RT (binding temperature …)
[2] = tested on: DIR2s_GAAACAC (RNA, aptamer) GGAUGCGCCUUGAAAAGCCUGCGAAACACGCAGCUGGUGAAUGACAGCUAUGGCGCAUCC; assay: fluorescence activation; conditions: 150 mM NaCl, 5 mM MgCl2; 50 mM Tris pH 7.4, 20 °C; loop version (UUCG or GAAACAC) not stated
[3] = tested on: DIR2s_GAAACAC (RNA, aptamer) GGAUGCGCCUUGAAAAGCCUGCGAAACACGCAGCUGGUGAAUGACAGCUAUGGCGCAUCC; assay: fluorescence competition; conditions: 150 mM NaCl, 5 mM MgCl2; 50 mM Tris pH 7.4, 20 °C; OTB-SO3 displaced, 500 nM RNA, 600 nM OTB-SO3
[4] = tested on: 5 bp P1 (RNA, aptamer) GGCCUUGAAAAGCCUGCGAAACACGCAGCUGGUGAAUGACAGCUAUGGCC; assay: fluorescence activation; conditions: 150 mM NaCl, 5 mM MgCl2; 50 mM Tris pH 7.4, 20 °C; RNA 3 µM, dye 6 µM; fluorescence as WT
[5] = tested on: DIR2s_GAAACAC (RNA, aptamer) GGAUGCGCCUUGAAAAGCCUGCGAAACACGCAGCUGGUGAAUGACAGCUAUGGCGCAUCC; assay: X-ray crystal structure, 1.86 Å; conditions: 10 mM MgCl2, 1.8 M Li2SO4; 50 mM MES pH 5.6; ternary complex with Fab BL3-6
[6] = tested on: Abasic G39 (RNA, aptamer, abasic at 39) GGAUGCGCCUUGAAAAGCCUGCGAAACACGCAGCUGGUNAAUGACAGCUAUGGCGCAUCC; assay: fluorescence activation; conditions: 150 mM NaCl, 5 mM MgCl2; 50 mM Tris pH 7.4, 20 °C; RNA 3 µM, dye 6 µM; fluorescence diminished
[7] = tested on: DIR2s_GAAACAC (RNA, aptamer) GGAUGCGCCUUGAAAAGCCUGCGAAACACGCAGCUGGUGAAUGACAGCUAUGGCGCAUCC; assay: fluorescence titration; conditions: 150 mM NaCl, 5 mM MgCl2; 50 mM Tris pH 7.4, 20 °C; construct assigned from review file b5063
[8] = tested on: A40U (RNA, aptamer) GGAUGCGCCUUGAAAAGCCUGCGAAACACGCAGCUGGUGUAUGACAGCUAUGGCGCAUCC; assay: fluorescence activation; conditions: 150 mM NaCl, 5 mM MgCl2; 50 mM Tris pH 7.4, 20 °C; RNA 3 µM, dye 6 µM; fluorescence as WT
[9] = tested on: DIR2s_WT (UUCG) (RNA, aptamer) GGAUGCGCCUUGAAAAGCCUGCUUCGGCAGCUGGUGAAUGACAGCUAUGGCGCAUCC; assay: fluorescence activation; conditions: 150 mM NaCl, 5 mM MgCl2; 50 mM Tris pH 7.4, 20 °C
[10] = tested on: A15C; A40, A41 to G (RNA, aptamer) GGAUGCGCCUUGAACAGCCUGCGAAACACGCAGCUGGUGGGUGACAGCUAUGGCGCAUCC; assay: fluorescence activation; conditions: 150 mM NaCl, 5 mM MgCl2; 50 mM Tris pH 7.4, 20 °C; RNA 3 µM, dye 6 µM; fluorescence abolished
[11] = tested on: Abasic A40 (RNA, aptamer, abasic at 40) GGAUGCGCCUUGAAAAGCCUGCGAAACACGCAGCUGGUGNAUGACAGCUAUGGCGCAUCC; assay: fluorescence activation; conditions: 150 mM NaCl, 5 mM MgCl2; 50 mM Tris pH 7.4, 20 °C; RNA 3 µM, dye 6 µM; fluorescence diminished
[12] = tested on: 0 bp P1 (RNA, aptamer) GGAAAAGCCCGCGAAACACGCAGCUGGUGAAUGACAGCU; assay: fluorescence activation; conditions: 150 mM NaCl, 5 mM MgCl2; 50 mM Tris pH 7.4, 20 °C; RNA 3 µM, dye 6 µM; ca. 80% of WT fluorescence
[13] = tested on: A41U (RNA, aptamer) GGAUGCGCCUUGAAAAGCCUGCGAAACACGCAGCUGGUGAUUGACAGCUAUGGCGCAUCC; assay: fluorescence activation; conditions: 150 mM NaCl, 5 mM MgCl2; 50 mM Tris pH 7.4, 20 °C; RNA 3 µM, dye 6 µM; fluorescence as WT
[14] = tested on: G39, A40, A41 to U (RNA, aptamer) GGAUGCGCCUUGAAAAGCCUGCGAAACACGCAGCUGGUUUUUGACAGCUAUGGCGCAUCC; assay: fluorescence activation; conditions: 150 mM NaCl, 5 mM MgCl2; 50 mM Tris pH 7.4, 20 °C; RNA 3 µM, dye 6 µM; fluorescence abolished

GGAUGCGCCUUGAAAAGCCUGCGAAACACGCAGCUGGUGAAUGACAGCUAUGGCGCAUCC [DIR2s_GAAACAC RNA]
Kd [1]: 67 nM

CN1C=CC(=Cc2sc3ccccc3[n+]2CC(=O)NCCOCCOCCOCCNC(=O)CCCC[C@@H]2SC[C@@H]3NC(=O)N[C@@H]32)c2ccccc21
binding [2]: yes

CN1C(=CC=Cc2cc[n+](CCCS(=O)(=O)[O-])c3ccccc23)C(C)(C)c2ccccc21
binding [3]: yes

CN1/C(=C/c2sc3ccccc3[n+]2CCCS(=O)(=O)[O-])Oc2ccccc21
binding [4]: yes
binding [5]: yes
binding [6]: weak
Kd [7]: 708 ± 16 nM
binding [8]: yes
binding [9]: yes
binding [10]: no
binding [11]: weak
binding [12]: yes
binding [13]: yes
binding [14]: no
